Key:
Assay in all cases: MIC by serial dilution method on agar plate
Format in all cases: cell-based
[1] = test system: Staphylococcus aureus FDA 209P
Excerpt: (§1) The microorganisms were used in a concentration of 1×10^8 cells/ml (O.D. 660 mμ, 0.07-0.16) and 1×10^6 cells/ml (100 folds dilution).

[2] = test system: Proteus morganii IID Kono
Excerpt: (§2) Chemotherapy, 22, 1126-1128 (1974)]. The microorganisms were used in a concentration of 1×10^8 cells/ml (O.D. 660 mμ, 0.07-0.16) and 1×10^6 cells/ml (100 folds dilution).

[3] = test system: Acinetobacter calcoaceticus AC-54
Excerpt: as §2

[4] = test system: Streptococcus faecalis IFO 12580
Excerpt: as §2

[5] = test system: Pseudomonas aeruginosa E-2
Excerpt: as §2

[6] = test system: Proteus inconstans IFO 12930
Excerpt: as §2

[7] = test system: Bacillus subtilis ATCC 6633
Excerpt: as §2

[8] = test system: Klebsiella pneumoniae NCTC 9632
Excerpt: as §2

[9] = test system: Serratia marcescens IFO 12648
Excerpt: as §2

[10] = test system: Escherichia coli NIHJ JC-2
Excerpt: as §2

Escherichia coli No. 29 = test system: Escherichia coli No. 29
Excerpt: as §2

[11] = test system: Pseudomonas aeruginosa ATCC 10145
Excerpt: as §2

[12] = test system: Staphylococcus pyrogens IID S-23
Excerpt: as §1

Molecule	minimum inhibitory concentration (MIC) ([1]; 1 × 10^6 cells/ml)	minimum inhibitory concentration (MIC) ([1]; 1 × 10^8 cells/ml)	minimum inhibitory concentration (MIC) ([2]; 1 × 10^6 cells/ml)	minimum inhibitory concentration (MIC) ([2]; 1 × 10^8 cells/ml)	minimum inhibitory concentration (MIC) ([3]; 1 × 10^6 cells/ml)	minimum inhibitory concentration (MIC) ([3]; 1 × 10^8 cells/ml)	minimum inhibitory concentration (MIC) ([5]; 1 × 10^6 cells/ml)	minimum inhibitory concentration (MIC) ([5]; 1 × 10^8 cells/ml)	minimum inhibitory concentration (MIC) ([6]; 1 × 10^6 cells/ml)	minimum inhibitory concentration (MIC) ([6]; 1 × 10^8 cells/ml)	minimum inhibitory concentration (MIC) ([7]; 1 × 10^6 cells/ml)	minimum inhibitory concentration (MIC) ([7]; 1 × 10^8 cells/ml)	minimum inhibitory concentration (MIC) ([8]; 1 × 10^6 cells/ml)	minimum inhibitory concentration (MIC) ([8]; 1 × 10^8 cells/ml)	minimum inhibitory concentration (MIC) ([9]; 1 × 10^6 cells/ml)	minimum inhibitory concentration (MIC) ([9]; 1 × 10^8 cells/ml)	minimum inhibitory concentration (MIC) ([10]; 1 × 10^6 cells/ml)	minimum inhibitory concentration (MIC) ([10]; 1 × 10^8 cells/ml)	minimum inhibitory concentration (MIC) (Escherichia coli No. 29; 1 × 10^6 cells/ml)	minimum inhibitory concentration (MIC) (Escherichia coli No. 29; 1 × 10^8 cells/ml)	other results
6,8-Difluoro-1-(4-hydroxy-2-fluorophenyl)-7-(1-piperazinyl)-1,4-dihydro-4-oxoquinoline-3-carboxylic acid [Example 5]	0.097	0.097	0.781	1.56	0.39	0.781	1.56	1.56	1.56	3.12	0.195	0.39	0.097	0.097	0.781	0.781	< 0.048	0.097	< 0.048	0.097	minimum inhibitory concentration (MIC) ([4]; 1 × 10^6 cells/ml): 0.781; minimum inhibitory concentration (MIC) ([4]; 1 × 10^8 cells/ml): 1.56; minimum inhibitory concentration (MIC) ([11]; 1 × 10^6 cells/ml): 1.56; minimum inhibitory concentration (MIC) ([11]; 1 × 10^8 cells/ml): 3.12
CN1CCN(c2cc3c(cc2F)c(=O)c(C(=O)O)cn3-c2ccc(F)cc2)CC1 [A]	0.195	0.39	0.78	0.78	0.39	0.39	3.12	3.12	3.12	3.12	0.097	0.195	0.195	0.195	0.78	3.12	0.195	0.195	0.097	0.195	minimum inhibitory concentration (MIC) ([12]; 1 × 10^6 cells/ml): 3.12; minimum inhibitory concentration (MIC) ([12]; 1 × 10^8 cells/ml): 6.25; minimum inhibitory concentration (MIC) ([11]; 1 × 10^6 cells/ml): 3.12; minimum inhibitory concentration (MIC) ([11]; 1 × 10^8 cells/ml): 3.12
O=C(O)c1cn(-c2ccc(F)cc2)c2cc(N3CCNCC3)c(F)cc2c1=O [B]	0.195	0.39	0.195	0.195	0.195	0.39	0.78	0.78	0.78	0.78	0.097	0.195	< 0.048	0.097	0.195	0.39	< 0.048	0.097	< 0.048	0.097	minimum inhibitory concentration (MIC) ([12]; 1 × 10^6 cells/ml): 3.12; minimum inhibitory concentration (MIC) ([12]; 1 × 10^8 cells/ml): 6.25; minimum inhibitory concentration (MIC) ([11]; 1 × 10^6 cells/ml): 0.78; minimum inhibitory concentration (MIC) ([11]; 1 × 10^8 cells/ml): 1.56

— patent publication US4755513A, “Antimicrobial 1-substituted phenyl-4-oxoquinoline-3-carboxylic acid compounds” (Otsuka Pharmaceutical Company, Limited, priority 1985, dated 1988)
